Measured values published in patent publication US20260201438A1 (priority 2022, published 2026).
In brackets after ≈: the same amount, converted by molar mass.

Columns and labels:
E. coli ATCC 25922 [1] = experiment: reference broth microdilution (rBMD); format: cell-based; settings: Escherichia coli, ATCC25922, read-out: MIC rBMD, E. coli ATCC 25922, isolates from urine cultures; geometric mean, n = 3
S. aureus ATCC 29213 = settings: CLSI M100-Ed35; cited from earlier work
E. coli ATCC 25922 [2] = settings: CLSI M100-Ed35; cited from earlier work

SMILES	MIC (E. coli ATCC 25922 [1])	MIC CLSI QC Range (S. aureus ATCC 29213)	MIC CLSI QC Range (E. coli ATCC 25922 [2])
Cc1nnc(SCC2=C(C(=O)O)N3C(=O)[C@@H](NC(=O)Cn4cnnn4)[C@H]3SC2)s1 [Cefazolin]	2 µg/mL (≈ 4.4 µM)	–	–
CO[C@@]1(NC(=O)Cc2cccs2)C(=O)N2C(C(=O)O)=C(COC(N)=O)CS[C@@H]21 [Cefoxitin]	–	1.0 to 4.0 µg/mL	–
CO/N=C(\C(=O)N[C@@H]1C(=O)N2C(C(=O)O)=C(CSc3nc(=O)c(=O)[nH]n3C)CS[C@H]12)c1csc(N)n1 [Ceftriaxone]	–	1.0 to 8.0 µg/mL	0.03 to 0.12 µg/mL
CO/N=C(\C(=O)N[C@@H]1C(=O)N2C(C(=O)O)=C(COC(N)=O)CS[C@H]12)c1ccco1 [Cefuroxime]	–	–	2.0 to 8.0 µg/mL
C[C@@H](O)[C@H]1C(=O)N2C(C(=O)O)=C(S[C@@H]3CN[C@H](C(=O)N(C)C)C3)[C@H](C)[C@H]12 [Meropenem]	–	0.03 to 0.12 µg/mL	0.008 to 0.06 µg/mL
